{"source": "patent US5087616A", "about": "“Cytotoxic drug conjugates and their delivery to tumor cells” (Battelle Memorial Institute, priority 1986, dated 1992)", "key": {"[1]": {"test_system": "A431 squamous carcinoma cells", "experiment": "Comparative cytotoxic effects of free and conjugated daunomycin, Trypan Blue exclusion", "type": "cell-based, human", "conditions": "A431, 1 μg/ml daunomycin or equivalent in conjugate, 48 hours", "protocol": "All cells were maintained in Dulbecco's Modified Medium (DMEM), 10 percent foetal calf serum (FSC) (GIBCO), 2 percent penicillin-streptomycin (Gibco) and 1 percent fungizone (GIBCO) in 5 percent CO2. They were plated at 50 to 60 percent confluence 24 hours before the addition of the toxin. […] Four volumes of 0.2 percent (w/v) Trypan Blue in water was freshly mixed with 1 volume of a saline solution 4.25 percent (w/v) of NaCl in water. One volume of this solution was mixed with 1 volume of PBS on the cell monolayer or to 1 volume of cell suspension in PBS. Observation and scoring took place 48 hours after addition of the toxin (see FIG. 2a and 2b)."}, "A431 tumors [2]": {"test_system": "A431 tumors", "experiment": "In vivo test of Conjugate IX, A431 tumors in nude mice", "conditions": "2 mg/kg daunomycin every 3 days over 9 days, caudal vein", "text": "The in vivo tests reported in Example 8 were repeated using Conjugate IX."}, "[3]": {"test_system": "mixed culture of A431 and WI38 cells", "experiment": "Effect on mixed cultures of tumor (A431) and normal (WI38) cells", "type": "cell-based", "conditions": "0.1 μg/ml (or equivalent free daunomycin), after 15 days", "protocol": "Cells were maintained as described in Example 4. The WI38 fibroblasts were first plated and the A431 squamous carcinoma cells were plated the next day. […]"}, "WI38 (control) cells": {"test_system": "WI38 (control) cells", "experiment": "Inhibition of cellular protein synthesis (35S methionine incorporation), WI38", "type": "cell-based", "conditions": "Homo sapiens, WI-38, 48 h", "protocol": "(§1) The effect of these drugs was evaluated by the degree of inhibition of cellular protein synthesis. For this, we measured the level of incorporation of 35S methionine NEN) into newly synthesized proteins after a 48 hrs exposure to different concentrations of the drugs.\n(§2) Cells were plated on 1.5 cm Petri dishes at 50 percent to 60 percent of confluence before the addition of the toxin. […] Cell death consecutive to this addition was measured as follows: the cells were exposed for 1 hour at 37° C. in 500 μl DMEM low methionine medium (GIBCO) containing radioactive ^35 S met. The medium was then removed and the dishes were washed with PBS 9137 mM NaCl, […], […], 8.1 mM Na2 HPO4, 1.5 mM KH2 PO4, 0.9 mM CaCl2, 0.5 mM MgCl2, pH 7.2). These solutions were stored for beta counting. The cells were lysed with 1 ml 0.1 N NaOH and placed in a tube with 500 μl Trichloroacetic acid (TCA) 10 percent to precipitate the proteins. This mixture was filtered on GF/A filters (Whatman) to eliminate unreacted ^35 S-met. The filters were washed twice with 1 ml of 10 percent TCA and once with 100 percent ethanol. The filters were dried at 80° C. for 2 hours and subjected to beta counting in Econofluor (NEN) scintillation medium."}, "A431 malignant cells": {"test_system": "A431 malignant cells", "experiment": "Inhibition of cellular protein synthesis (35S methionine incorporation), A431", "type": "cell-based", "conditions": "Homo sapiens, A-431, 48 h, read-out: % of protein Synthesis Inhibition", "protocol": "as §1, §2"}, "A431 tumors [4]": {"test_system": "A431 tumors", "experiment": "In vivo test of Conjugate VIII, A431 tumors in nude mice", "conditions": "for Initial Surface of the Tumor (A): before treatment; for Final Surface of the tumor (B): a week after last injection; for Tumor weight: tumors dissected at end of experiment", "protocol": "In the prior art, up to 10 mg/kg doses have been used in mice (S. Schwarz, et al., 1975, Cancer Chem. Rep., 6, 2, 107-114). The drug was injected either directly in the tumor or in the caudal vein 4 times at 3 days intervals. The measures were taken a week after the last injection."}, "[5]": {"test_system": "A431 squamous carcinoma cells", "experiment": "Internalization of 125I-labelled EGF and Conjugate VIII in A431 cells", "type": "cell-based, human", "conditions": "A431, 6 hrs at 37° C.", "protocol": "(§3) The Conjugate VIII, radiolabeled with ^125 I on the EGF, was incubated with confluent cell cultures of A431 and WI38 cells for 6 hrs at 37° C. in solution A (4 parts DMEM and 1 part of 50 mM Tris, 100 mM NaCl and 0.1 percent BSA adjusted to pH 7.4). The cells were then washed four times with ice-cold PBS+1 mM CaCl2 and 1 mM MgCl2. Fifty percent trichloroacetic acid was added in a proportion of 1:5 to the pooled solution A and PBS, and the mixture was counted on a gamma counter. The cell membrane was destablized by treatment on ice with 200 mM acetic acid and 150 mM NaCl (solution B) for 6 minutes. The solution B was then removed and the cells washed twice with solution B. These pooled B solutions were assayed for ^125 I. This treatment releases the […] to the cell surface. The cells were then completely dissolved in 0.2 N NaOH. The radioactivity found there represented the internalized Conjugate VIII. In control experiments, using free EGF ^125 I, a proportion of the EGF is recycled to the medium, therefore lowering the intracellular EGF. The results on the internalization of ^125 I labelled EGF and Conjugate VIII in WI38 and A431 cell cultures are given in the following Table in terms of counts per min (background 30 cpm) for successively: EGF not integrated in the cell, EGF bound to the membrane, and EGF in the intra-cellular compartment. The percent of total cpm is given in brackets."}, "WI38 fibroblasts": {"test_system": "WI38 fibroblasts", "experiment": "Internalization of 125I-labelled EGF and Conjugate VIII in WI38 cells", "type": "cell-based", "conditions": "WI38, 6 hrs at 37° C.", "protocol": "as §3"}, "[6]": {"conditions": "I.T., 0.1 mg/kg daunomycin 4 times at 3 days intervals"}}, "data": [{"compound": "COc1cccc2c1C(=O)c1c(O)c3c(c(O)c1C2=O)C[C@@](O)(C(C)=O)C[C@@H]3O[C@H]1C[C@H](N)[C@H](O)[C@H](C)O1", "note": "[Daunomycin, daunomycin]", "values": [{"measurement": "Cell death by Trypan Blue exclusion", "setting": "[1]", "value": "Exclusion of the dye from the cells demonstrates the viability thereof"}, {"measurement": "Tumor diameter", "setting": "A431 tumors [2]; day 0", "value": 10, "unit": "mm"}, {"measurement": "Tumor diameter", "setting": "A431 tumors [2]; day 4", "value": 12, "unit": "mm"}, {"measurement": "Tumor diameter", "setting": "A431 tumors [2]; day 7", "value": 15, "unit": "mm"}, {"measurement": "Tumor diameter", "setting": "A431 tumors [2]; day 11", "value": 20, "unit": "mm"}, {"measurement": "Tumor diameter", "setting": "A431 tumors [2]; day 14", "value": 21, "unit": "mm"}, {"measurement": "Cells remaining in mixed culture", "setting": "[3]", "value": "all cells, malignant and normal, had died after 15 days"}, {"measurement": "inhibition at 0.1 µg/mL", "setting": "WI38 (control) cells", "value": 10, "unit": "%"}, {"measurement": "inhibition at 0.5 µg/mL", "setting": "WI38 (control) cells", "value": 46, "unit": "%"}, {"measurement": "inhibition at 1 µg/mL", "setting": "WI38 (control) cells", "value": 80, "unit": "%"}, {"measurement": "inhibition at 0.1 µg/mL", "setting": "A431 malignant cells", "value": 30, "unit": "%"}, {"measurement": "inhibition at 0.5 µg/mL", "setting": "A431 malignant cells", "value": 68, "unit": "%"}, {"measurement": "inhibition at 1 µg/mL", "setting": "A431 malignant cells", "value": 97, "unit": "%"}, {"measurement": "Initial Surface of the Tumor (A)", "setting": "A431 tumors [4]; I.T. (intratumor)", "value": 9}, {"measurement": "Growth coefficient (B/A)", "setting": "A431 tumors [4]; [6]", "value": 18.7}, {"measurement": "Final Surface of the tumor (B)", "setting": "A431 tumors [4]; [6]", "value": 170}, {"measurement": "Tumor weight", "setting": "A431 tumors [4]; I.T.", "value": 1.178, "unit": "g"}, {"measurement": "Initial Surface of the Tumor (A)", "setting": "A431 tumors [4]; I.V. (caudal vein)", "value": 30.5}, {"measurement": "Final Surface of the tumor (B)", "setting": "A431 tumors [4]; I.V., 0.1 mg/kg daunomycin 4 times at 3 days intervals", "value": 500}, {"measurement": "Tumor weight", "setting": "A431 tumors [4]; I.V.", "value": 6.789, "unit": "g"}]}, {"compound": "EGF: Epidermal Growth Factor, a single polypeptide of 53 amino acids (SIGMA)", "values": [{"measurement": "Tumor diameter", "setting": "A431 tumors [2]; day 0", "value": 10, "unit": "mm"}, {"measurement": "Tumor diameter", "setting": "A431 tumors [2]; day 4", "value": 13, "unit": "mm"}, {"measurement": "Tumor diameter", "setting": "A431 tumors [2]; day 7", "value": 14, "unit": "mm"}, {"measurement": "Tumor diameter", "setting": "A431 tumors [2]; day 11", "value": 17, "unit": "mm"}, {"measurement": "Tumor diameter", "setting": "A431 tumors [2]; day 14", "value": 17, "unit": "mm"}, {"measurement": "Intracellular, percent of total cpm", "setting": "[5]", "value": 14, "unit": "%"}, {"measurement": "Membrane, percent of total cpm", "setting": "[5]", "value": 0, "unit": "%"}, {"measurement": "Unbound, percent of total cpm", "setting": "[5]", "value": 86, "unit": "%"}, {"measurement": "Intracellular", "setting": "[5]; background 30 cpm", "value": 111, "unit": "cpm"}, {"measurement": "Membrane", "setting": "[5]; background 30 cpm", "value": 31, "unit": "cpm"}, {"measurement": "Unbound (EGF not integrated in the cell)", "setting": "[5]; background 30 cpm", "value": 536, "unit": "cpm"}, {"measurement": "Intracellular, percent of total cpm", "setting": "WI38 fibroblasts", "value": 7, "unit": "%"}, {"measurement": "Membrane bound, percent of total cpm", "setting": "WI38 fibroblasts", "value": 0, "unit": "%"}, {"measurement": "Unbound, percent of total cpm", "setting": "WI38 fibroblasts", "value": 93, "unit": "%"}, {"measurement": "Intracellular", "setting": "WI38 fibroblasts; background 30 cpm", "value": 67, "unit": "cpm"}, {"measurement": "Membrane bound", "setting": "WI38 fibroblasts; background 30 cpm", "value": 29, "unit": "cpm"}, {"measurement": "Unbound (EGF not integrated in the cell)", "setting": "WI38 fibroblasts; background 30 cpm", "value": 530, "unit": "cpm"}]}]}
